In general, IC50 refers to the concentration needed to halve the response being measured.

Where two headings read alike, the source gives them in different places. Bounds are passed on as bounds.

The source of these data is patent US20190161516A1, “PROTEASOME INHIBITORS” (University of Kentucky Research Foundation, priority 2017, published 2019).

For test [1], the system named is Chymotrypsin-like activity (β5/β5i). As to the kind of experiment: Proteasome inhibitory activity, subunit-specific cell lysate IC50, chymotrypsin-like activity. The format is biochemical.
Test [2] addresses LMP2/β1i (Homo sapiens, UniProt P28065+P40306). As to the kind of experiment: Proteasome inhibitory activity, subunit-specific cell lysate IC50, LMP2. The format is biochemical. Also noted: Subunit-Specific Cell lysate IC50 (μM); endogenous in cells.
Test [3] relates to BV-2 cells. The experiment in a line: LPS-induced IL-6 production in BV-2 microglial cell line. The format is cell-based. As to conditions: FIG. 14. An excerpt: To test this, we used BV-2 cell line, a microglial cell line, known to upregulate cytokines in response to LPS treatment. […] We suspect these contradictory results are due to cell type-specific role of LMP2, indicating a distinct role of LMP2 in microglia inflammatory response.

For test [4], the system named is human peripheral blood mononuclear cells (PBMCs). As to conditions: previous studies; cited from earlier work.
Setting [5] is: read-out: Subunit-Specific Cell lysate IC50, LMP2 (β1i).
[6] abbreviates: Subunit-Specific Cell lysate IC50, LMP2 (β1i).

As for `Cc1ncc(C(=O)NCC(=O)N2CCC[C@H]2C(=O)N[C@@H](Cc2ccccc2)C(=O)N[C@@H](CC(C)C)C(=O)[C@@]2(C)CO2)s1` [Analogue 15], the half-maximal inhibitory concentration (IC50) in test [1] is greater than 10 µM; in test [2] (setting [5]), 0.1 µM. In the case of `CC(C)C[C@H](NC(=O)[C@H](CCc1ccccc1)NC(=O)[C@@H]1CCCN1C(=O)CNC(=O)c1cnccn1)C(=O)[C@@]1(C)CO1` [Analogue 20], the IC50 in test [2] (setting [5]) was found to be 0.1 µM. In the case of `CC(C)C[C@H](NC(=O)[C@H](Cc1ccc2ccccc2c1)NC(=O)[C@@H]1CCCN1C(=O)CNC(=O)c1cnccn1)C(=O)[C@@]1(C)CO1` [Analogue 23], in test [2] (setting [5]), the IC50 is 0.06 µM. Regarding `CC(=O)NCC(=O)N1CCC[C@H]1C(=O)N[C@@H](Cc1ccncc1)C(=O)N[C@@H](CC(C)C)C(=O)[C@@]1(C)CO1` [Analogue 30], in test [2] (setting [5]), the IC50 came out at 0.12 µM. For the molecule `Cc1ncc(C(=O)NCC(=O)N2CCC[C@H]2C(=O)N[C@@H](CCc2ccccc2)C(=O)N[C@@H](CC(C)C)C(=O)[C@@]2(C)CO2)s1` [Analogue 19], the IC50 in test [1] was greater than 10 µM; in test [2] (setting [5]), 0.18 µM. For `CC(=O)NCC(=O)N1CCC[C@H]1C(=O)N[C@@H](Cc1ccc(-c2ccccc2)cc1)C(=O)N[C@@H](CC(C)C)C(=O)[C@@]1(CO)CO1` [Analogue 4] the same measures were greater than 10 µM and 0.65 µM.

`CC(=O)NCC(=O)N1CC(F)(F)C[C@H]1C(=O)N[C@@H](Cc1ccccc1)C(=O)N[C@@H](CC(C)C)C(=O)[C@@]1(C)CO1` [Analogue 12]: the values for the IC50 in test [1] and in test [2] (setting [5]) were greater than 10 µM and 0.07 µM, respectively.

As to `CC(=O)NCC(=O)N1CCC[C@H]1C(=O)N[C@@H](Cc1ccc(NC(=O)CN2CCOCC2)cc1)C(=O)N[C@@H](CC(C)C)C(=O)[C@@]1(C)CO1` [Analogue 29], the concentration for half-maximal inhibition (IC50) is greater than 10 µM in test [1] and 0.09 µM in test [2] (setting [5]). On to `COc1ccc(C[C@H](NC(=O)[C@H](C)NC(=O)CN2CCOCC2)C(=O)N[C@@H](Cc2ccccc2)C(=O)[C@@]2(C)CO2)cc1` [ONX-0914], for which the “IL-6 production induced by LPS” value in test [3] was “less effective in blocking IL-6 production”. Further, the “LPS-induced cytokine production including IL-6” value in test [4] is “almost completely blocked”. As for `Cc1ncc(C(=O)NCC(=O)N2CCC[C@H]2C(=O)N[C@@H](Cc2ccc(-c3ccccc3)cc2)C(=O)N[C@@H](CC(C)C)C(=O)[C@@]2(C)CO2)s1` [Analogue 24], the 50% inhibitory concentration (IC50) in test [2] (setting [5]) turned out to be 0.13 µM.

As for `CC(=O)NCC(=O)N1CCC[C@H]1C(=O)N[C@@H](Cc1ccc2ccccc2c1)C(=O)N[C@@H](CC(C)C)C(=O)[C@@]1(C)CO1` [Analogue 7], the IC50 in test [1] was greater than 10 µM; in test [2] (setting [5]), 0.03 µM.

Consider `CC(=O)NCC(=O)N1CCC[C@H]1C(=O)N[C@@H](Cc1ccc(NC(=O)c2ccccc2)cc1)C(=O)N[C@@H](CC(C)C)C(=O)[C@@]1(C)CO1` [Analogue 18], for which the IC50 in test [1] came to 5 µM; in test [2] (setting [6]) it was 0.07 µM.

As to `CC(=O)NCC(=O)N1CCCCC1C(=O)N[C@@H](Cc1ccccc1)C(=O)N[C@@H](CC(C)C)C(=O)[C@@]1(C)CO1` (stereo partly shown) [Analogue 14], the IC50 worked out at 1 µM in test [1] and 0.12 µM in test [2] (setting [5]).

Take `Cc1ncc(C(=O)NCC(=O)N2CCC[C@H]2C(=O)N[C@@H](Cc2ccc3ccccc3c2)C(=O)N[C@@H](CC(C)C)C(=O)[C@@]2(C)CO2)s1` [Analogue 26]: the concentration for half-maximal inhibition (IC50) in test [2] (setting [5]) amounted to 0.09 µM. On to `CC(C)C[C@H](NC(=O)[C@H](Cc1ccccc1)NC(=O)[C@@H]1CCCN1C(=O)c1cccc(O)n1)C(=O)[C@@]1(C)CO1` [Analogue 2], for which the IC50 in test [1] is greater than 10 µM; in test [2] (setting [5]), 1 µM. As to `CC(C)C[C@H](NC(=O)[C@H](Cc1ccccc1)NC(=O)[C@@H]1CCCN1C(=O)CNC(=O)c1cccc(O)n1)C(=O)[C@@]1(C)CO1` [Analogue 17], the IC50 in test [1] is greater than 10 µM; in test [2] (setting [5]), 0.14 µM. On to `CC(=O)NCC(=O)N1CCC[C@H]1C(=O)N[C@@H](Cc1ccc(-c2ccccc2)cc1)C(=O)N[C@@H](CC(C)C)C(=O)[C@@]1(C)CO1` [Analogue 8], for which the IC50 in test [1] is 5 µM; in test [2] (setting [5]), 0.02 µM. For `CC(=O)NCC(=O)N1CCC[C@H]1C(=O)N[C@@H](CCc1ccccc1)C(=O)N[C@@H](CC(C)C)C(=O)[C@@]1(C)CO1` [Analogue 13], the IC50 was greater than 10 µM in test [1] and 0.06 µM in test [2] (setting [5]). As for `CC(C)C[C@H](NC(=O)[C@H](Cc1ccc(-c2ccccc2)cc1)NC(=O)[C@@H]1CCCN1C(=O)CNC(=O)c1cnccn1)C(=O)[C@@]1(C)CO1` [Analogue 22], the results for the half-maximal inhibitory concentration (IC50) in test [1] and in test [2] (setting [5]) were 5 µM and 0.09 µM, respectively. With `CCc1ccc(C[C@H](NC(=O)[C@@H]2CCCN2C(=O)CNC(C)=O)C(=O)N[C@@H](CC(C)C)C(=O)[C@@]2(C)CO2)cc1` [Analogue 9], the half-maximal inhibitory concentration (IC50) in test [1] was greater than 10 µM; in test [2] (setting [5]), 0.13 µM. As to `CC(=O)NCC(=O)N1CCC[C@H]1C(=O)N[C@@H](Cc1ccc2ccccc2c1)C(=O)N[C@@H](CC(C)C)C(=O)[C@@]1(CO[Si](c2ccccc2)(c2ccccc2)C(C)(C)C)CO1` [Analogue 5], the half-maximal inhibitory concentration (IC50) in test [1] and in test [2] (setting [6]) was greater than 10 µM each time. As for `CC(C)C[C@H](NC(=O)[C@H](Cc1ccccc1)NC(=O)[C@@H]1CCCN1C(=O)CN1CCOCC1=O)C(=O)[C@@]1(C)CO1` [Analogue 3], the IC50 was greater than 10 µM in test [1] and 1 µM in test [2] (setting [5]).

In the case of `CC(C)C[C@H](NC(=O)[C@H](Cc1ccccc1)NC(=O)[C@@H]1CCCN1C(=O)CNC(=O)C(F)(F)F)C(=O)[C@@]1(C)CO1` [Analogue 25], the IC50 in test [1] was greater than 10 µM; in test [2] (setting [5]), 0.13 µM.

With `CC(=O)NCC(=O)N1CCC[C@H]1C(=O)N[C@@H](Cc1ccc2ccccc2c1)C(=O)N[C@@H](CC(C)C)C(=O)[C@@]1(CO)CO1` [Analogue 6], the 50% inhibitory concentration (IC50) in test [1] worked out at 7 µM; in test [2] (setting [5]) it was 2.2 µM. On to `CC(=O)NCC(=O)N1CCC[C@H]1C(=O)N[C@@H](Cc1cccc2ccccc12)C(=O)N[C@@H](CC(C)C)C(=O)[C@@]1(C)CO1` [Analogue 10], for which the half-inhibitory concentration (IC50) was greater than 10 µM in test [1] and 0.03 µM in test [2] (setting [5]). On to `Cc1cc(C(=O)NCC(=O)N2CCC[C@H]2C(=O)N[C@@H](CCc2ccccc2)C(=O)N[C@@H](CC(C)C)C(=O)[C@@]2(C)CO2)no1` [Analogue 21], for which the IC50 in test [1] was greater than 10 µM; in test [2] (setting [5]) it was 0.13 µM.

For the molecule `CC(C)C[C@H](NC(=O)[C@H](Cc1ccccc1)NC(=O)[C@@H]1CCCN1C(=O)CN1CCOCC1)C(=O)[C@@]1(C)CO1` [Analogue 1], the results for the 50% inhibitory concentration (IC50) in test [1] and in test [2] (setting [5]) were greater than 10 µM and 1.2 µM, respectively. As to `CC(=O)NCC(=O)N1CCC[C@H]1C(=O)N[C@@H](Cc1ccccc1)C(=O)N[C@@H](CC(C)C)C(=O)[C@@]1(CO)CO1` [Analogue 11], the concentration for half-maximal inhibition (IC50) in test [1] was greater than 10 µM; in test [2] (setting [5]), 0.06 µM.

As to `CC(=O)NCC(=O)N1CCC[C@H]1C(=O)N[C@@H](Cc1ccc(NC(=O)c2cnccn2)cc1)C(=O)N[C@@H](CC(C)C)C(=O)[C@@]1(C)CO1` [Analogue 28], the 50% inhibitory concentration (IC50) in test [1] was greater than 10 µM; in test [2] (setting [6]), 0.03 µM. For the molecule `CC(C)C[C@H](NC(=O)[C@H](Cc1ccccc1)NC(=O)[C@@H]1CCCN1C(=O)CNC(=O)S(C)(=O)=O)C(=O)[C@@]1(C)CO1` [Analogue 27], the figures for the IC50 in test [1] and in test [2] (setting [5]) were greater than 10 µM and 0.11 µM, respectively.
